# Patent US12637480B2, “Heterocyclic compounds as sting modulators” (BEIGENE, LTD., priority 2020, dated 2026)
# Counter-ions that a name gives are not always drawn.
# Key:
# [1] = target: human STING (hSTING) HAQ variant in THP1-Dual HAQ Cells (Homo sapiens, UniProt Q86WV6, G230A/H232R/R293Q/R71H); assay: STING cellular assay in THP1-Dual HAQ cells (ISG54 Lucia luciferase reporter, QUANTI-Luc)
# [2] = target: human STING (hSTING) R232 variant in THP1-Dual KI-hSTING-R232 Cells (Homo sapiens, UniProt Q86WV6, H232R); assay: STING cellular assay in THP1-Dual KI-hSTING-R232 cells (ISG54 Lucia luciferase reporter, QUANTI-Luc)
# human STING (hSTING) R232 variant in THP1-Dual KI-hSTING-R232 Cells, sequence (Q86WV6 whole entry H232R): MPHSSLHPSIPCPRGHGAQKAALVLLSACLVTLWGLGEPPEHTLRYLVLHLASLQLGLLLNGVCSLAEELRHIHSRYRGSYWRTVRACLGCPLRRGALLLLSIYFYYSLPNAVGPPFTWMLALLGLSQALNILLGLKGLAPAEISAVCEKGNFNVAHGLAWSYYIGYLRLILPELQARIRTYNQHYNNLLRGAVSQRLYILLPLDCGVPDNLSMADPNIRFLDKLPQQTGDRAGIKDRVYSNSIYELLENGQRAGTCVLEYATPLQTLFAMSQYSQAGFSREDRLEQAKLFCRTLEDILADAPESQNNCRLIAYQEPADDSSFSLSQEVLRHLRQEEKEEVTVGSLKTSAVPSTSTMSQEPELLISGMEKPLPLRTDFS
# human STING (hSTING) HAQ variant in THP1-Dual HAQ Cells, sequence (Q86WV6 whole entry R71H/G230A/H232R/R293Q): as the sequence (Q86WV6 whole entry H232R) above, with R71H, G230A, R293Q counted along it
Structure (SMILES),EC50 [1],EC50 [2]
"CCn1nc(C)cc1C(=O)Nc1nc2cc(C(N)=O)cnc2n1C/C=C/Cn1c2nc(-c3cc(C)nn3CC)ncc2c2cc(C(N)=O)cc(OCCCNC)c21 [Example 1-AB, (E)-9-(4-(6-carbamoyl-2-(1-ethyl-3-methyl-1H-pyrazole-5-carboxamido)-3H-imidazo[4,5-b]pyridin-3-yl)but-2-en-1-yl)-2-(1-ethyl-3-methyl-1H-pyrazol-5-yl)-8-(3-(methylamino)propoxy)-9H-pyrimido[4,5-b]indole-6-carboxamide]",355 nM,6.2 nM
"CCn1nc(C)cc1C(=O)Nc1nc2cc(C(N)=O)cnc2n1C/C=C/Cn1c2nc(-c3cc(C)nn3CC)ncc2c2cc(C(N)=O)cc(OCCCN3CCNCC3)c21 [Example 2-AB-HCl, (E)-9-(4-(6-carbamoyl-2-(1-ethyl-3-methyl-1H-pyrazole-5-carboxamido)-3H-imidazo[4,5-b]pyridin-3-yl)but-2-en-1-yl)-2-(1-ethyl-3-methyl-1H-pyrazol-5-yl)-8-(3-(piperazin-1-yl)propoxy)-9H-pyrimido[4,5-b]indole-6-carboxamide hydrochloride]",565 nM,11 nM
"CCn1nc(C)cc1C(=O)Nc1nc2cc(C(N)=O)cnc2n1C/C=C/Cn1c2nc(-c3cc(C)nn3CC)ncc2c2cc(C(N)=O)cc(OCCCN3CCN(C(=O)CON)CC3)c21 [Example 2-AC, (E)-8-(3-(4-(2-(aminooxy)acetyl)piperazin-1-yl)propoxy)-9-(4-(6-carbamoyl-2-(1-ethyl-3-methyl-1H-pyrazole-5-carboxamido)-3H-imidazo[4,5-b]pyridin-3-yl)but-2-en-1-yl)-2-(1-ethyl-3-methyl-1H-pyrazol-5-yl)-9H-pyrimido[4,5-b]indole-6-carboxamide]",118 nM,10 nM
"CCn1nc(C)cc1C(=O)Nc1nc2cc(C(N)=O)cnc2n1C/C=C/Cn1c2nc(-c3cc(C)nn3CC)ncc2c2cc(C(N)=O)cc(OCCCCNC)c21 [Example 3-AB-HCl, (E)-9-(4-(6-carbamoyl-2-(1-ethyl-3-methyl-1H-pyrazole-5-carboxamido)-3H-imidazo[4,5-b]pyridin-3-yl)but-2-en-1-yl)-2-(1-ethyl-3-methyl-1H-pyrazol-5-yl)-8-(4-(methylamino)butoxy)-9H-pyrimido[4,5-b]indole-6-carboxamide hydrochloride]",640 nM,23 nM
"CCn1nc(C)cc1C(=O)Nc1nc2cc(C(N)=O)cnc2n1C/C=C/Cn1c2nc(-c3cc(C)nn3CC)ncc2c2cc(C(N)=O)cc(OCCC3CNC3)c21 [Example 4-AB, (E)-8-(2-(azetidin-3-yl)ethoxy)-9-(4-(6-carbamoyl-2-(1-ethyl-3-methyl-1H-pyrazole-5-carboxamido)-3H-imidazo[4,5-b]pyridin-3-yl)but-2-en-1-yl)-2-(1-ethyl-3-methyl-1H-pyrazol-5-yl)-9H-pyrimido[4,5-b]indole-6-carboxamide]",1040 nM,30 nM
"CCn1nc(C)cc1C(=O)Nc1nc2cc(C(N)=O)cnc2n1C/C=C/Cn1c2nc(-c3cc(C)nn3CC)ncc2c2cc(C(N)=O)cc(OCCCC3CN(C(=O)OC(C)(C)C)C3)c21 [Example 5-AA, tert-butyl (E)-3-(3-((6-carbamoyl-9-(4-(6-carbamoyl-2-(1-ethyl-3-methyl-1H-pyrazole-5-carboxamido)-3H-imidazo[4,5-b]pyridin-3-yl)but-2-en-1-yl)-2-(1-ethyl-3-methyl-1H-pyrazol-5-yl)-9H-pyrimido[4,5-b]indol-8-yl)oxy)propyl)azetidine-1-carboxylate]",39 nM,1.6 nM
"CCn1nc(C)cc1C(=O)Nc1nc2cc(C(N)=O)cnc2n1C/C=C/Cn1c2nc(-c3cc(C)nn3CC)ncc2c2cc(C(N)=O)cc(OCCCC3CNC3)c21 [Example 5-AB, (E)-8-(3-(azetidin-3-yl)propoxy)-9-(4-(6-carbamoyl-2-(1-ethyl-3-methyl-1H-pyrazole-5-carboxamido)-3H-imidazo[4,5-b]pyridin-3-yl)but-2-en-1-yl)-2-(1-ethyl-3-methyl-1H-pyrazol-5-yl)-9H-pyrimido[4,5-b]indole-6-carboxamide]",862 nM,27 nM
CCn1nc(C)cc1C(=O)Nc1nc2cc(C(N)=O)cnc2n1C/C=C/Cn1c2nc(-c3cc(C)nn3CC)ncc2c2cc(C(N)=O)cc(OCCC3CCNCC3)c21 [Example 6-AB],674 nM,29 nM
CCn1nc(C)cc1C(=O)Nc1nc2cc(C(N)=O)cnc2n1C/C=C/Cn1c2nc(-c3cc(C)nn3CC)ncc2c2cc(C(N)=O)cc(OCCCC3CCNCC3)c21 [Example 7-AB],305 nM,16 nM
"CCn1nc(C)cc1C(=O)Nc1nc2cc(C(N)=O)cnc2n1C/C=C/Cn1c2nc(-c3cc(C)nn3CC)ncc2c2cc(C(N)=O)cc(OCCC3CCN(C(=O)OC(C)(C)C)CC3)c21 [Example-6-AA, tert-butyl (E)-4-(2-((6-carbamoyl-9-(4-(6-carbamoyl-2-(1-ethyl-3-methyl-1H-pyrazole-5-carboxamido)-3H-imidazo[4,5-b]pyridin-3-yl)but-2-en-1-yl)-2-(1-ethyl-3-methyl-1H-pyrazol-5-yl)-9H-pyrimido[4,5-b]indol-8-yl)oxy)ethyl)piperidin-1-carboxylate]",49 nM,0.9 nM

# Compounds with a lower EC50 [1], results first:
EC50 [1],EC50 [2],Structure (SMILES)
3.4 nM,0.58 nM,CCn1nc(C)cc1C(=O)Nc1nc2cc(C(N)=O)cnc2n1C/C=C/Cn1c2nc(-c3cc(C)nn3CC)ncc2c2cc(C(N)=O)cc(OCCCN(C)C(=O)OC(C)(C)C)c21 [Example 1-AA]
34 nM,3.6 nM,CCn1nc(C)cc1C(=O)Nc1nc2cc(C(N)=O)cnc2n1C/C=C/Cn1c2nc(-c3cc(C)nn3CC)ncc2c2cc(C(N)=O)cc(OCCCN(C)C(=O)CON)c21 [Example 1-AC]
2.4 nM,0.46 nM,"CCn1nc(C)cc1C(=O)Nc1nc2cc(C(N)=O)cnc2n1C/C=C/Cn1c2nc(-c3cc(C)nn3CC)ncc2c2cc(C(N)=O)cc(OCCCN3CCN(C(=O)OC(C)(C)C)CC3)c21 [Example 2-AA, tert-butyl (E)-4-(3-((6-carbamoyl-9-(4-(6-carbamoyl-2-(1-ethyl-3-methyl-1H-pyrazole-5-carboxamido)-3H-imidazo[4,5-b]pyridin-3-yl)but-2-en-1-yl)-2-(1-ethyl-3-methyl-1H-pyrazol-5-yl)-9H-pyrimido[4,5-b]indol-8-yl)oxy)propyl)piperazine-1-carboxylate]"
4.1 nM,0.52 nM,"CCn1nc(C)cc1C(=O)Nc1nc2cc(C(N)=O)cnc2n1C/C=C/Cn1c2nc(-c3cc(C)nn3CC)ncc2c2cc(C(N)=O)cc(OCCCCN(C)C(=O)OC(C)(C)C)c21 [Example 3-AA, tert-butyl (E)-(4-((6-carbamoyl-9-(4-(6-carbamoyl-2-(1-ethyl-3-methyl-1H-pyrazole-5-carboxamido)-3H-imidazo[4,5-b]pyridin-3-yl)but-2-en-1-yl)-2-(1-ethyl-3-methyl-1H-pyrazol-5-yl)-9H-pyrimido[4,5-b]indol-8-yl)oxy)butyl)(methyl)carbamate]"
4.8 nM,0.78 nM,"CCn1nc(C)cc1C(=O)Nc1nc2cc(C(N)=O)cnc2n1C/C=C/Cn1c2nc(-c3cc(C)nn3CC)ncc2c2cc(C(N)=O)cc(OCCC3CN(C(=O)OC(C)(C)C)C3)c21 [Example 4-AA, tert-butyl (E)-3-(2-((6-carbamoyl-9-(4-(6-carbamoyl-2-(1-ethyl-3-methyl-1H-pyrazole-5-carboxamido)-3H-imidazo[4,5-b]pyridin-3-yl)but-2-en-1-yl)-2-(1-ethyl-3-methyl-1H-pyrazol-5-yl)-9H-pyrimido[4,5-b]indol-8-yl)oxy)ethyl)azetidine-1-carboxylate]"
28 nM,1 nM,"CCn1nc(C)cc1C(=O)Nc1nc2cc(C(N)=O)cnc2n1C/C=C/Cn1c2nc(-c3cc(C)nn3CC)ncc2c2cc(C(N)=O)cc(OCCCC3CCN(C(=O)OC(C)(C)C)CC3)c21 [Example 7-AA, tert-butyl (E)-4-(3-((6-carbamoyl-9-(4-(6-carbamoyl-2-(1-ethyl-3-methyl-1H-pyrazole-5-carboxamido)-3H-imidazo[4,5-b]pyridin-3-yl)but-2-en-1-yl)-2-(1-ethyl-3-methyl-1H-pyrazol-5-yl)-9H-pyrimido[4,5-b]indol-8-yl)oxy)propyl)piperidine-1-carboxylate]"
